Laboratory results reported in ChEMBL document CHEMBL5226340, “Chemical Biology of Sortase A Inhibition: A Gateway to Anti-infective Therapeutic Agents” (J Med Chem, 2021).
Converted amounts (≈) assume the structure as drawn. Where a name gives a salt, the structure may show the parent alone. Residues, ends and D or L forms follow the SMILES beside them. *: point of attachment. Cbz = O=C(OCc1ccccc1)*; CH2Cl = ClC*

Tests used:
Staphylococcus aureus [1] = assay: Antibacterial activity against Staphylococcus aureus SA113 by microbroth dilution assay; format: functional
[2] = target: T1, Sortase A (Staphylococcus aureus) (UniProt Q9S446); assay: Binding affinity to Staphylococcus aureus SrtA assessed as kinact/ki
T1 sequence (whole entry): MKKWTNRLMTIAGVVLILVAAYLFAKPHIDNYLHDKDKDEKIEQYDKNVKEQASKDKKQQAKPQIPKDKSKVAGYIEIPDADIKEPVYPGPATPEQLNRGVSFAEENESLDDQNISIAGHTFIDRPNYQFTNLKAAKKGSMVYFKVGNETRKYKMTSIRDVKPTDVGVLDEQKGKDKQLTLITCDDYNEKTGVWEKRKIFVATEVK

Sortase A [3] = target: T2, Sortase A (Staphylococcus aureus, UniProt Q9S446); assay: Inhibition of Staphylococcus aureus SrtA using […] as substrate by FRET assay
T2 sequence (Q9S446 whole entry): T1 sequence (whole entry)

Sortase A [4] = target: T2, Sortase A; assay: Binding affinity to Staphylococcus aureus SrtA (60 to 206 residues) using Dabcyl-Gln-Ala-Leu-Pro-Glu-Thr-Gly-Glu-Glu-Edans as substrate incubated for 12 hrs by fluorescence based analysis
[5] = target: T1, Sortase A (Staphylococcus aureus); assay: Binding affinity to Staphylococcus aureus SrtA (60 to 206 residues) using Dabcyl-Gln-Ala-Leu-Pro-Glu-Thr-Gly-Glu-Glu-Edans as substrate assessed as first order rate constant of inactivation incubated for 12 hrs by fluorescence based analysis
[6] = target: T1, Sortase A (Staphylococcus aureus); assay: Binding affinity to Staphylococcus aureus SrtA (60 to 206 residues) using Dabcyl-Gln-Ala-Leu-Pro-Glu-Thr-Gly-Glu-Glu-Edans as substrate assessed as second order rate constant of inhibition, kinact/ki incubated for 12 hrs by fluorescence based analysis
[7] = target: T1, Sortase A (Staphylococcus aureus); assay: Inhibition of Staphylococcus aureus SrtA expressed in Escherichia coli BL21 (DE3) cells using Abz-LPETG-Dap(Dnp) as substrate assessed as kinact/ki
Sortase A [8] = target: T2, Sortase A; assay: Inhibition of recombinant Staphylococcus aureus ATCC 6538p SrtA expressed in Escherichia coli TOP10 using Dabcyl-QALPETGEE-Edans as substrate incubated for 1 hr by fluorometric analysis
Staphylococcus aureus [9] = assay: Antibacterial activity against Staphylococcus aureus ATCC 6538p assessed as inhibition of bacterial growth incubated overnight by spectrophotometer; format: functional
Sortase A [10] = target: T2, Sortase A; assay: Inhibition of Staphylococcus aureus SrtA transpeptidation activity
Sortase A [11] = target: T2, Sortase A; assay: Inhibition of Staphylococcus aureus SrtA with 24 residues truncated from N-terminus using Abz-LPATG-Dap as substrate
Staphylococcus aureus [12] = assay: Antibacterial activity against Staphylococcus aureus; format: functional
Sortase A [13] = target: T2, Sortase A; assay: Inhibition of C-terminal 6His-tagged recombinant Staphylococcus aureus SrtA with 1 to 59 residues truncated from N-terminus expressed in Escherichia coli BL21 (DE3) using dabcyl-QALPETGEE-edans as substrate preincubated for 1 hr followed by substrate addition and measured for 1 hr by FRET assay
Staphylococcus aureus [14] = assay: Inhibition of biofilm formation in Staphylococcus aureus ATCC 29213 incubated for 24 hrs by crystal violet staining based analysis; format: functional, organism-based; conditions: ATCC 29213, 24 h
Sortase A [15] = target: T2, Sortase A; assay: Inhibition of wild type recombinant Staphylococcus aureus ATCC 25904 Sortase A expressed in Escherichia coli BL21 using Dabcyl-QALPETGEE-Edans as substrate incubated for 30 mins followed by substrate addition and measured after 60 mins by FRET assay
Sortase A [16] = target: T2, Sortase A; assay: Inhibition of Staphylococcus aureus USA 300 SrtA expressed in Escherichia coli BL21 (DE3) cells using Dabcyl-QALPETGEE-Edans as substrate incubated for 1 hr by FRET assay
[17] = target: T1, Sortase A (Staphylococcus aureus); assay: Binding affinity to wild type recombinant Staphylococcus aureus SrtA using Dabcyl-Gln-Ala-Leu-Pro-Glu-Thr-Gly-Glu-Glu-Edans as substrate assessed as first order rate constant of inactivation by FRET assay
Sortase A [18] = target: T2, Sortase A; assay: Binding affinity to wild type recombinant Staphylococcus aureus SrtA using Dabcyl-Gln-Ala-Leu-Pro-Glu-Thr-Gly-Glu-Glu-Edans as substrate by FRET assay
[19] = target: T1, Sortase A (Staphylococcus aureus); assay: Binding affinity to wild type recombinant Staphylococcus aureus SrtA using Dabcyl-Gln-Ala-Leu-Pro-Glu-Thr-Gly-Glu-Glu-Edans as substrate assessed as second order rate constant of inhibition, kinact/Ki by FRET assay
Sortase A [20] = target: T2, Sortase A; assay: Inhibition of Staphylococcus aureus SrtA expressed in Escherichia coli BL21 (DE3) cells using Abz-LPETG-Dap(Dnp) as substrate preincubated for 30 mins followed by substrate addition and further incubated for 30 mins by HPLC analysis
Sortase A [21] = target: T2, Sortase A; assay: Inhibition of Staphylococcus aureus SrtA using EDANS-Dabcyl as substrate by FRET assay
Staphylococcus aureus [22] = assay: Antibacterial activity against Staphylococcus aureus Newman assessed as inhibition of bacterial growth by spectrophotometer method; format: functional
Sortase A [23] = target: T2, Sortase A; assay: Inhibition of recombinant Staphylococcus aureus SrtA using DabcylQALPETGEE-Edans as substrate by FRET assay
Staphylococcus aureus [24] = assay: Inhibition of biofilm formation in Staphylococcus aureus ATCC 6538 incubated for 24 hrs by crystal violet staining based analysis; format: functional, organism-based; conditions: ATCC 6538, 24 h

Compound: CCSSc1ccccc1C(=O)NCC(=O)NC12CC3CC(CC(C3)C1)C2
- MIC (Staphylococcus aureus [1]): 7.74 µM (≈ 3.13 µg/mL)
- Ratio [2]: 5.79 10^4/M/min

Compound: O=c1cc(-c2ccc(O)cc2)oc2cc(O)c([C@@H]3O[C@H](CO)[C@@H](O)[C@H](O)[C@H]3O)c(O)c12 [ISOVITEXIN]
- IC50 (Sortase A [3]): 67 µM

Compound: CC(C)C[C@H](NC(=O)OCc1ccccc1)C(=O)N1CCC[C@H]1C(=O)N[C@@H](C)C(=O)N[C@@H](/C=C/S(=O)(=O)c1ccccc1)[C@@H](C)O
- Ki (Sortase A [4]): 9 µM
- Kinact [5]: 4 10^-4/min
- Kinact [6]: 0.74 M⁻¹ s⁻¹
- Ratio [6]: 44.4 M⁻¹ min⁻¹

Compound: C=CS(=O)(=O)c1ccccc1
- Ratio [7]: 20.1 M⁻¹ min⁻¹

Compound: COc1ccc(-c2coc3cc(O)ccc3c2=O)cc1 [FORMONONETIN]
- IC50 (Sortase A [8]): 74.9 µM
- MIC (Staphylococcus aureus [9]): > 478 µM

Compound: O=C(/C=C/c1ccc(O)cc1)O[C@H]1[C@@H](O)[C@H](O)C[C@](O)(C(=O)O)[C@H]1O
- IC50 (Sortase A [10]): 161 µM

Compound: c1cc(-c2nnc3sc(-c4ccc5[nH]cnc5c4)nn23)ccn1
- IC50 (Sortase A [11]): 17 µM

Compound: Cc1cc(C(=O)/C(=N/Nc2c(F)cccc2F)C(=O)O)no1
- MIC (Staphylococcus aureus [12]): > 200 µM
- IC50 (Sortase A [13]): 76.5 µM
- IC50 (Staphylococcus aureus [14]): 29 µM

Compound: COc1ccc(CCc2cc(OC)c(OC)c(OC)c2)cc1O
- MIC (Staphylococcus aureus [12]): 1600 µM (≈ 509 µg/mL)
- IC50 (Sortase A [15]): 65.7 µM

Compound: CCCC(=O)c1c(O)c(CC2=C(O)C(C)(C)C(=O)C(C(C)=O)=C2O)c(O)c(Cc2c(O)c(C(=O)CCC)c(O)c(C(C)C3=C(O)C(C)(C)C(=O)C(C(C)=O)=C3O)c2O)c1O (configuration not stated)
- IC50 (Sortase A [16]): 24.2 µM

Compound: CC(C)C[C@H](NC(=O)OCc1ccccc1)C(=O)N1CCC[C@H]1C(=O)N[C@@H](C)C(=O)N[C@H](C(=O)CCl)[C@@H](C)O (Cbz-LPAT-CH2Cl)
- Kinact [17]: 1.1 10^-2/min
- Ki (Sortase A [18]): 0.2 µM
- Ratio [19]: 5.3 10^4/M/min
- kinact/Ki [19]: 883 M⁻¹ s⁻¹

Compound: O=S(=O)(/C=C\C(F)(F)F)c1ccccc1
- Ratio [7]: 90 M⁻¹ min⁻¹
- IC50 (Sortase A [20]): 190 µM

Compound: O=C(NCCSSCCNC(=O)/C(Cc1ccc(O)c(Br)c1)=N/O)/C(Cc1ccc(O)c(Br)c1)=N/O [PSAMMAPLIN A]
- IC50 (Sortase A [21]): 47.4 µM
- MIC (Staphylococcus aureus [22]): > 200 µg/mL

Compound: COc1cc2c(cc1O)OC(c1ccccc1)CC2=O (configuration not stated)
- IC50 (Sortase A [8]): 96.1 µM
- MIC (Staphylococcus aureus [9]): > 4700 µM

Compound: COc1ccc2cc3[n+](cc2c1OC)CCc1cc2c(cc1-3)OCO2 [BERBERINE SULFATE]
- IC50 (Sortase A [23]): 26.5 µM

Compound: CCOC(=O)/C(=N\Nc1c(F)cccc1F)C(=O)c1cc(C)nn1CC
- MIC (Staphylococcus aureus [12]): > 200 µM
- IC50 (Sortase A [13]): 75 µM
- IC50 (Staphylococcus aureus [24]): 0.9 µM
